# Where two headings read alike, the source gives them in different places.
# Legend:
# Type in all cases: cell-based
# [1] = target: T1, pUL50–pUL53 interaction (LgBiT::UL53(1–87)-Flag + SmBiT::UL50-HA) (Human cytomegalovirus, UniProt P16791); settings: 293T cells, 5×, 1× or 0.2× anti-HCMV EC50 levels, truncated LgBiT::UL53(1–87)-Flag
# T1 construct: expressed in transfected cells; host or cells: 293T
# HCMV ∆UL50-ΣUL53 = experiment: qPCR-based replication assay, HCMV ∆UL50-ΣUL53 in HFF-UL50 cells
# Experimental: The viral genome copy number in cell culture supernatants was determined by IE1-specific quantitative real-time PCR (qPCR) as described previously. […] For the qPCR reactions, aliquots of infected-cell supernatants were incubated with proteinase K (Sigma-Aldrich, St. Louis, MO, USA) at 56 °C for 1 h in order to release the viral DNA. After a denaturation step at 95 °C for 5 min, the DNA samples were optionally stored at 4 °C or directly used for qPCR, as performed in a 25 µL reaction mixture containing 5 µL of either the sample or the standard DNA solution. Additional components of the reaction mixture were 12.5 µL 2× TaqMan PCR Mastermix (Applied Biosystems, Waltham, MA, USA), 7.5 pmol of each primer (5′-[…]-3′) and 5′-[…]-3′) and 5 pmol probe directed against the HCMV MIE region exon 4 (5′-[…]-3′), which was labeled with 6-carboxyfluorescein reporter dye and 6-carboxytetramethylrhodamine quencher dye. The DNA standard for quantification was prepared by serial dilutions of an MIE-inserted plasmid. The thermal cycling conditions consisted of two initial steps of 2 min at 50 °C and 10 min at 95 °C followed by 40 amplification cycles (15 s at 95 °C, 1 min 60 °C). Reactions were performed with an ABI Prism 7700 sequence detector (Applied Biosystems, Waltham, MA, USA).
# To this end, the conditional expression system of the HCMV ΔUL50-ΣUL53 recombinant was applied. […] The relative differences in viral replication efficiencies, under these four chosen conditions, were normalized by two means, namely, by using the same conditions in the DMSO control panel (±S, ±D) and by evaluating viral replication in percentage values (% DMSO).
# HFF-UL50 cells were cultivated in 96-well plates and infected with (A,B) HCMV ∆UL50-ΣUL53, with (C) parental HCMV AD169 (WT), using adjusted genome copy numbers, or remained uninfected (mock). Viral input was adjusted to 1 × 10^5 copies per well. […] Dox was refreshed every second day. At 14 d p.i., supernatants were harvested, and viral genome equivalents were determined using HCMV IE1-specific qPCR. Each condition was examined in biological quadruplicates; mean values ± SDs are shown. […] Statistical analysis was performed using ordinary one-way ANOVA and post hoc Tukey testing; **** p ≤ 0.0001; n.s., not significant.
# [2] = target: T2, EBV HA-BFRF1 + Flag-BFLF2 (Epstein-Barr virus, UniProt P03185+P0CK47); experiment: Confocal imaging of core NEC localization in cotransfected HeLa cells, EBV; settings: 4 µM, 3 d p.t.
# T2 construct: expressed in transfected cells; host or cells: HeLa
# Experimental: HFF or HFF-UL50 cells, either Dox-induced or uninduced, were seeded in 6-well plates with a density of 2 × 10^5 cells per well, grown on coverslips and infected with HCMV AD169 or AD169 ∆UL50-ΣUL53. For infection experiments with the recombinant virus, different Shield-1 and Dox conditions were analyzed. Antivirals were added post-infection as described for the experiments. For transfection experiments, HeLa cells were seeded on coverslips in 6-well plates with a density of 3.25 × 10^5 cells per well for cotransfection with the indicated NEC expression plasmids (HSV-1 HA-UL34 + Flag-UL31, HCMV pUL50-HA + pUL53-Flag and EBV HA-BFRF1 + Flag-BFLF2). At indicated time points after virus infection, or 3 days post-transfection, cells were fixed, applied for IF staining as described previously and analyzed using a TCS SP5 confocal laser-scanning microscope with Leica LAS AF software (Leica Microsystems, Wetzlar, Germany). […] The device features a Leica photomultiplier tube (PMT) and a hybrid detector (HyD). Images were further processed using Photoshop CS5 (Adobe Inc., San José, CA, USA). […] Microscopic counting was performed for quantitation of colocalization patterns of two different proteins, as achieved by counting 50 cells per biological triplicate. […]
# T2 sequence (P03185 whole entry): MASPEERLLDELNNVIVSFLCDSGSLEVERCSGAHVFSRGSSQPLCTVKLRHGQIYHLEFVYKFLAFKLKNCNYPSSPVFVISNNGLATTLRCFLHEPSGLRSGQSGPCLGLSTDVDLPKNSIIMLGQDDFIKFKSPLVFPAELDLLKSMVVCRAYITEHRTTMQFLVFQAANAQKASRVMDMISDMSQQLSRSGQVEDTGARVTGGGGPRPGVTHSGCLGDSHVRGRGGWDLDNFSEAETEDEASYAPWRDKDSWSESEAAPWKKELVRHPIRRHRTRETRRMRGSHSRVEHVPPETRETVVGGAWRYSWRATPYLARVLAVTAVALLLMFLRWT
# T2 sequence (P0CK47 whole entry): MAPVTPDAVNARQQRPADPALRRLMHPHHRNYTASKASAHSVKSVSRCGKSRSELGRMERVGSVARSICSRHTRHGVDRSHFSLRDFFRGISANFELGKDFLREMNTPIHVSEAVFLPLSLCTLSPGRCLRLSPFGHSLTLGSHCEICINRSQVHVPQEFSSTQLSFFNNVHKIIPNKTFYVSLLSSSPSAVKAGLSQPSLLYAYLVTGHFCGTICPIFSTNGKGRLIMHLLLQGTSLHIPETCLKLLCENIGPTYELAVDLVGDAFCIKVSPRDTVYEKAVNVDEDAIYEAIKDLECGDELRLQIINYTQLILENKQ
# T1 sequence (P16791 whole entry, the tested form may be a part): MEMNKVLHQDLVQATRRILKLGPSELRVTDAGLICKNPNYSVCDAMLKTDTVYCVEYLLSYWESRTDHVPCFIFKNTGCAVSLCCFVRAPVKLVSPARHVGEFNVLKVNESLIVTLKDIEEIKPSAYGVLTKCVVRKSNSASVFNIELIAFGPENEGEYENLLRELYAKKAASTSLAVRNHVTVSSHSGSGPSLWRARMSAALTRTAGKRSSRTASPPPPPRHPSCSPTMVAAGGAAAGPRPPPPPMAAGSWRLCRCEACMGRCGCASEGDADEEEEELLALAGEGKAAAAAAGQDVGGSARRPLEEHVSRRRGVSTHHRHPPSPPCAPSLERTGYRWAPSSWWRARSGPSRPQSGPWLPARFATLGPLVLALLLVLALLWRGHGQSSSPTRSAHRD
structure (smiles),measurement,setting,value
C=CC(=O)N1CCC[C@@H](n2nc(-c3ccc(Oc4ccccc4)cc3)c3c(N)ncnc32)C1 [ibrutinib],inhibitory effect on NanoBiT interaction signal (in words),[1],"most prominent, dose-dependent reduction in the measured interaction signal"
same,EC50,"HCMV ∆UL50-ΣUL53; +S+D (Shield-1 1 µM, Dox 500 ng/mL), 14 d p.i., qPCR, two biological replicates",4.8 ± 11.1 µM
same,EC50,"HCMV ∆UL50-ΣUL53; Human betaherpesvirus 5, 336 h, +S+D (Shield-1 1 µM, Dox 500 ng/mL), 14 d p.i., qPCR, two biological replicates",4 ± 3.6 µM
same,EC50,"HCMV ∆UL50-ΣUL53; Human betaherpesvirus 5, 336 h, +S-D (no pUL50 induction), 14 d p.i., qPCR",> 32 µM
same,EC50,"HCMV ∆UL50-ΣUL53; Human betaherpesvirus 5, 336 h, -S+D (no pUL53 stabilization), 14 d p.i., qPCR",> 32 µM
same,EC50,"HCMV ∆UL50-ΣUL53; Human betaherpesvirus 5, 336 h, -S-D (neither core NEC protein), 14 d p.i., qPCR, two replicates",> 32 µM
same,EC50,"HCMV ∆UL50-ΣUL53; Human betaherpesvirus 5, read-out: mean EC50, ∆UL50-ΣUL53, +S+D, mean of replicates",4.4 µM
same,core NEC nuclear rim localization (in words),[2],did not show any similar alteration in nuclear rim localization

# — article PMC10137179, “Assessment of Covalently Binding Warhead Compounds in the Validation of the Cytomegalovirus Nuclear Egress Complex as an Antiviral Target” (Cells, 2023)
